Source: US7053043B1, “Pharmaceutical compositions comprising synthetic peptide copolymers and methods for preventing and treating GVHD and HVGD” (Yeda Research and Development Co.Ltd., priority 1999, dated 2006)

Experiments:
skin graft rejection = assay: Skin graft transplantation model for HVGD; format: in vivo, mice; settings: B10.D2 → BALB/c, FK506 300 μg/day ip, 7 injections from day −2
Description: Recipient mice were dorsally transplanted with circular pieces of donor skin. Mice were inspected daily. Grafts were considered rejected when no viable donor epidermis remained. The results are expressed in mean survival time (MST). P values were obtained by analysis of variance (ANOVA).
[…] The first Cop 1 treatment on day −7 was injected sc in ICFA as a depot dose. Control mice were treated daily with PBS alone and PBS with ICFA on day −7 before transplantation.
Grafts were inspected daily. Rejection was considered positive when no viable donor epidermis remained. […]

[1] = test system: function of transplanted thyroids; assay: Thyroid graft assay for HVGD (125I absorption of thyroid transplanted in kidney capsule); format: in vivo, mice; settings: B10.D2 → BALB/c, FK506 300 μg
Description: In this transplantation model for HVGD, thyroid glands from donor mice were transplanted in the kidney's capsules of recipient mice. One week later the transplanted mice were injected with ^125I, and the radioactivity of each kidney (the recipient or the untransplanted kidney) was measured after 20 hours. Δcpm was calculated by subtracting the ^125I absorbance of the untransplanted kidneys from the ^125I absorbance of the recipient kidneys in the same treatment. The mean function index (MFI) for treatment was calculated by dividing the mean Δcpm for the tested (Copolymer 1) treatment by the mean Δcpm for the PBS treatment. P values were obtained by the t test. This assay indicates objectively and quantitatively not only the graft survival, but also the function (iodine absorbance) of the transplanted thyroid tissue (Isakov et al., 1979).
The transplanted mice were treated daily with Copolymer 1 600 μg/day (300 μg ip+300 μg sc) in PBS solution, starting 7 days before transplantation. The first Cop 1 treatment on day −7 was injected sc in ICFA as a depot dose. Control mice were treated daily with PBS alone and PBS with ICFA on day −7 before transplantation.
To test the effect of Copolymer 1 treatment on the function of transplanted thyroids in the B10.D2→BALB/c model, thyroid glands from donors B10.D2 were transplanted in the kidney's capsules of BALB/c mice. After one week the transplanted mice were injected with ^125I, and the radioactivity of each kidney was measured 20 hours later. cpm was calculated by subtracting the ^125I absorbance of the untransplanted kidneys from the ^125I absorbance of the recipient kidneys in the same treatment. The mean function index (MFI) for each treatment was calculated by dividing the mean ^125I absorbance of (transplanted kidney-untransplanted kidney) in the tested treatment by the mean ^125I absorbance of (transplanted kidney-untransplanted kidney) in the PBS treatment, as follows: […]

[2] = test system: proliferation of B10.PL (H-2u) responder cells to PL/J stimulator cells; assay: Mixed lymphocyte reaction (MLR) across minor histocompatibility barriers; format: cell-based, mice; settings: 20 μg/well, Cop 1 Batch I, 1:1 ratio of responder to stimulator cells
Description: (§1) Responder cells for MLR reactions across major histocompatibility barriers were harvested from spleen of non-immunized mice while responder cells for MLR across minor histocompatibility barriers were harvested from mice which were preimmunized with irradiated (30 Gy) 50×10^6 stimulator spleen cells 21 days before. Responder cells (5×10^5 spleen cells per well) were tested for their proliferative response by plating with different amounts (2.5 to 10×10^5) of irradiated stimulator cells, in presence or absence of various peptide inhibitors (10–100 μg per well). Cultures were set up in 200 μl media containing 10% FCS in flat-bottom microtiter plates. After 4 days of incubation, cultures were pulsed with 1 μCi of [^3H]thymidine for an additional 16 hours. Results are represented as mean counts per minute (cpm) thymidine incorporation from triplicate cultures.
(§2) To investigate the feasibility of inhibition of MLR by Copolymer 1, an MLR system was developed in which Copolymer 1 was tested for its ability to inhibit the proliferation of B10.PL (H-2^u) responder cells to stimulator cells of either the same (PL/J) or different (BALB/c) H-2 haplotype. For comparison, the inhibitory MBP Ac 1-11[4A], MBP 35-47, a combination of Ac 1-1[4A]+MBP 35-47, MBP 89-101 and KM-core peptides, described in Schlegel et al. (1994), were used in the MLR experiments.
(§3) The inhibition obtained by Copolymer 1 was similar (in response to minor histocompatibility antigen) or even higher (in response to major histocompatibility antigen) than the inhibition obtained with the combination of the two synthetic peptides Ac 1-11[4A] and MBP 35-47, which specifically bind to the class II molecules I-A^u and the I-E^u, respectively. The molar efficiency of Copolymer 1 of M.W. 6000 is even higher since the molecular weight of the synthetic peptides is 4–5 fold lower.

[3] = test system: proliferation of B10.PL (H-2u) responder cells to BALB/c stimulator cells; assay: Mixed lymphocyte reaction (MLR) across major histocompatibility barriers, B10.PL vs BALB/c; format: cell-based, mice; settings: 20 μg/well, Cop 1 Batch I, 1:1 ratio of responder to stimulator cells
Description: as §1, §2, §3

[4] = test system: GVHD in B10.D2 → BALB/c recipients; assay: Murine lethal GVHD model after bone marrow transplantation, B10.D2/nSnJ→BALB/c; format: in vivo, mice; settings: for overall incidence of GVHD: 600 μg per injection (ip + sc), Cop 1 Batch I
Description: The murine GVHD model of B10.D2/nSnJ→BALB/c mice (both H-2^d) across minor histocompatibility barriers, was selected since it is similar to the MHC matched bone marrow transplantation in humans. For the induction of GVHD, 10×10^6 bone marrow and 100×10^6 spleen cells from B10.D2 mice were injected into lethally irradiated (8.0 Gy) BALB/c recipients. […] Recipient mice were 12–13 weeks at the time of transplantation.
Based on previous studies with Cop 1 in EAE (Sela et al., 1990; Teitelbaum et al., 1971; Teitelbaum et al., 1973) and class II-binding competitor peptides in GVHD (Schlegel et al., 1994), the dosage of 600 μg per injection was selected, half of which was administered intraperitoneally (ip), whereas the other half was given subcutaneously (sc). Treatment of BALB/c recipient mice was initiated on day −1, followed by daily injections for the first five weeks starting on day 0 after transplantation. The frequency of injections was tapered to three times per week for the subsequent two weeks and to two times per week for another two weeks and then discontinued. Throughout the experiment, copolymers and controls were administered once a week with incomplete Freund's adjuvant (IFA) ip as a depot dose (Schlegel et al., 1994). Treatment was discontinued 9 weeks after transplantation.
Mice were followed up daily for 140 days after bone marrow transplantation for signs of GVHD. Disease severity was assessed by mortality, loss of body weight, and by the extent of macroscopic skin involvement scored on a cumulative scale (from min O— max 8): head 1, neck 1, back (1/3, 2/3, 3/3) 1–3, front (1/3, 2/3, 3/3) 1–3. Skin biopsies were examined as previously described (Schlegel et al., 1994).
(ii) Effect of Copolymer 1 Treatment on the Incidence, Onset and Severity of GVHD. […] For the first five weeks after transplant mice were injected daily as outlined in Materials and Methods, followed by a tapering schedule over an additional four weeks.
(iii) Effect of Copolymer 1 treatment on survival. […]

[5] = test system: T cell proliferation in MHC-disparate mixed lymphocyte cultures; assay: Mixed lymphocyte cultures across major histocompatibility barriers, six MHC-disparate strain combinations; format: cell-based, mice; settings: 10–100 μg/well, all concentrations tested
Description: as §1

C=CC[C@@H]1/C=C(\C)C[C@H](C)C[C@H](OC)[C@H]2O[C@@](O)(C(=O)C(=O)N3CCCC[C@H]3C(=O)O[C@H](/C(C)=C/[C@@H]3CC[C@@H](O)[C@H](OC)C3)[C@H](C)[C@@H](O)CC1=O)[C@H](C)C[C@@H]2OC [FK506]
MST ± SD (Mean Survival Time of skin graft) (skin graft rejection): 21.2 ± 4.3 days | MST ± SD (Mean Survival Time of skin graft) (skin graft rejection; listed as FK 506): 21.2 days | Mean 125I Absorption, Transplanted Kidney (cpm) [1]: 3117 cpm | Mean 125I Absorption, Untransplanted Kidney (cpm) [1]: 693 cpm | cpm (transplanted minus untransplanted kidney) [1]: 2424 cpm | MFI (mean function index) ([1]; folds over PBS treatment): 3.1

KM-core: KMKMVAAHAKMKM (SEQ ID NO:3), based on the antigenic core sequence of ovalbumin 323–339 (KMKMVHAAHAKMKM)
inhibition of MLR [2]: did not induce any significant effect | inhibition of MLR [3]: did not induce any significant effect

Hen egg-white lysozyme [HEL]
long-term survival from lethal graft-versus-host disease ([4]; 600 μg per injection): did not improve long-term survival | overall incidence of GVHD ([4]; day 30 after transplant): 100% | overall incidence of GVHD ([4]; day 70 after transplant): 100% | median onset of GVHD ([4]; days after transplant, 600 μg per injection): 22 days | inhibitory effect on the MLC [5]: no or only minimal inhibitory effect

MBP 89-101: peptide VHFFKNIVTPRTP (SEQ ID NO:4) of myelin basic protein
inhibition of MLR [2]: did not induce any significant effect | inhibition of MLR [3]: did not induce any significant effect
